Experiments:
[1] = Test Example 1: removal of hydrogen sulfide from hexane, FPD gas chromatography; details: for Test sample A Hydrogen sulfide concentration: 100 ppm hydrogen sulfide, 100 ppm compound; for effect of removing hydrogen sulfide (in words): summary of Table 1
Procedure: Two 200-ml four-neck flasks were provided. Hexane (100 ml) was placed in the flask equipped with a bubbling device. In the other flask, iron sulfide underwent a reaction with the dropwise addition of hydrochloric acid, resulting the generation of hydrogen sulfide. Then, hexane was subjected to bubbling with hydrogen sulfide that had been transferred via a tube. Thus, test samples at a hydrogen sulfide concentration of 100 ppm were prepared. The measurement of hydrogen sulfide concentration was carried out by FPD gas chromatography (using a flame photometric detector). Stock solution of BNPA, DBNE, and BNP (100 ppm each) were separately added to the test samples, followed by stirring for a given period of time. The hydrogen sulfide concentration of each sample was measured in a time-dependent manner.

[2] = Test Example 5: removal of hydrogen sulfide dissolved in water, 30 minutes stirring, methylene blue colorimetric method; details: for residual hydrogen sulfide (in words): summary of Table 5
Procedure: Distilled water was bubbled with a hydrogen sulfide gas. Thus, a solution containing dissolved hydrogen sulfide (5 mgS/l) was prepared. The solution was placed in separate beakers. Then, formulations that were prepared in accordance with Test example 4 were separately added thereto in a manner such that the concentration of each test compound became 500 ppm, followed by stirring for 30 minutes using a stirrer. Thereafter, the residual hydrogen sulfide concentration was measured. The measurement was carried out using “Pack Tests” (Kyoritsu Chemical-Check Lab., Corp.) in accordance with a methylene blue colorimetric method.

[3] = Test Example 2: removal of methyl mercaptan gas by formulation in closed bag, detector tube; details: for Methyl mercaptan gas concentration: 1 ml formulation, methyl mercaptan gas at 500 ppm; for effect of removing methyl mercaptan (in words): summary of Table 2
Procedure: A formulation containing BNPA was previously prepared in accordance with Formulation example 1. With the use of DBNE and BNP instead of BNPA, formulations containing DBNE and BNP, respectively, were prepared, in accordance with formulation example 1. Each formulation (1 ml) was dispensed into a glass petri dish covered with a plastic bag. Then, each plastic bag was closed after being filled with methyl mercaptan gas at 500 ppm. The methyl mercaptan gas was allowed to come into contact with the formulation for a given time. Thereafter, the methyl mercaptan gas concentration was measured using a detector tube.

[4] = Test Example 3: removal of hydrogen sulfide dissolved in water, methylene blue colorimetric method; details: for removal of hydrogen sulfide dissolved in water (in words): summary of Table 3; for Residual hydrogen sulfide concentration: water, test compound 500 ppm, stirring for 10 minutes, ND = complete removal
Procedure: Distilled water was bubbled with hydrogen sulfide gas. Thus, a hydrogen sulfide-dissolved solution (5 mgS/l) was prepared. The solution was placed in separate beakers. Then, formulations that were prepared in accordance with Test example 2 were separately added thereto in a manner such that the concentration of each test compound became 500 ppm, followed by stirring for 10 minutes. Thereafter, the residual hydrogen sulfide concentration was measured. The measurement was carried out using “Pack Tests” (Kyoritsu Chemical-Check Lab., Corp.) in accordance with a methylene blue colorimetric method.

[5] = Test Example 4: removal of hydrogen sulfide gas by formulation in closed bag, detector tube; details: for Hydrogen sulfide concentration: 1 ml formulation, 1 liter hydrogen sulfide gas at 500 ppm; for removal of hydrogen sulfide gas (in words): summary of Table 4
Procedure: A formulation containing BNPA was previously prepared in accordance with Formulation example 1. With the use of BNP instead of BNPA, a formulation containing BNP was prepared in accordance with formulation example 1.
Iron sulfide and hydrochloric acid were allowed to react with each other, resulting in the generation of hydrogen sulfide. Thus, hydrogen sulfide gas at a concentration of 500 ppm was prepared. Each formulation (1 ml) was placed in a glass petri dish covered with a plastic bag. Then, each plastic bag was closed after being filled with 1 liter of hydrogen sulfide gas. At 24 and 48 hours later, the hydrogen sulfide gas concentration was measured using a detector tube.

SMILES	Test sample A Hydrogen sulfide concentration ([1]; contact time 0 minutes)	Test sample A Hydrogen sulfide concentration ([1]; contact time 10 minutes)	Test sample A Hydrogen sulfide concentration ([1]; contact time 30 minutes)	Test sample A Hydrogen sulfide concentration ([1]; contact time 60 minutes)	effect of removing hydrogen sulfide (in words) [1]	residual hydrogen sulfide (in words) [2]	Residual hydrogen sulfide concentration ([2]; water 5 mgS/l, test compound 500 ppm, stirring for 30 minutes, ND = no hydrogen sulfide observed)	Methyl mercaptan gas concentration ([3]; contact time 0 hours)	Methyl mercaptan gas concentration ([3]; contact time 24 hours)	Methyl mercaptan gas concentration ([3]; contact time 48 hours)	effect of removing methyl mercaptan (in words) [3]	removal of hydrogen sulfide dissolved in water (in words) [4]	Residual hydrogen sulfide concentration [4]	Hydrogen sulfide concentration ([5]; contact time 0 hours)	Hydrogen sulfide concentration ([5]; contact time 24 hours)	Hydrogen sulfide concentration ([5]; contact time 48 hours)	removal of hydrogen sulfide gas (in words) [5]
O=[N+]([O-])C(Br)(CO)CO [BNP, 2-bromo-2-nitro-1,3-propanediol]	100 ppm	81 ppm	77 ppm	68 ppm	the removal efficiency was poor	residual hydrogen sulfide was observed	1 mgS/l	500 ppm	485 ppm	461 ppm	almost no effect of removing methyl mercaptan	very low capacity for removing hydrogen sulfide	18 mgS/l	500 ppm	480 ppm	470 ppm	complete removal was not achieved
CC(=O)OCC(Br)(COC(C)=O)[N+](=O)[O-] [BNPA, 2-bromo-2-nitropropane-1,3-diyl diacetate]	100 ppm	38 ppm	14 ppm	2 ppm	had an effect of removing hydrogen sulfide	no hydrogen sulfide was observed	–	500 ppm	283 ppm	0 ppm	complete removal of methyl mercaptan gas was achieved after 48 hours	complete removal of hydrogen sulfide	–	500 ppm	210 ppm	0 ppm	complete removal of hydrogen sulfide was achieved after 48 hours
O=[N+]([O-])C(Br)(Br)CO [DBNE, 2,2-dibromo-2-nitroethanol]	100 ppm	42 ppm	25 ppm	11 ppm	had an effect of removing hydrogen sulfide	–	–	500 ppm	358 ppm	29 ppm	confirmed to have the effect of removing methyl mercaptan	confirmed to have an effect of removing hydrogen sulfide	5 mgS/l	–	–	–	–

From patent publication US20070205140A1, “Method of Removing Sulfides Including Hydrogen Sulfide and Mercaptan” (K - I CHEMICAL INDUSTRY CO., LTD., priority 2004, published 2007)
